Where only a bound is given, the exact number is not on record here.

From patent US12447153B2, “HER2 mutation inhibitors” (Array BioPharma Inc., priority 2021, dated 2025) come the findings set out here.

One experiment addresses EGFR wild type (EGFR WT) (Homo sapiens (Human), UniProt P00533). Put plainly: Cellular Phosphorylation Assay, Assay 5 (EGF-stimulated EGFR phosphorylation, NIH 3T3 cells). The experiment is classed as cell-based. The note with it: EGF-stimulated EGFR WT phosphorylation.
In experiment [1] the target is ErbB2 with Exon 20 YVMA insertion (HER2-YVMA) (Homo sapiens (Human), UniProt P04626, INS775YVMA). Put plainly: Cellular Phosphorylation Assay, Assay 4 (constitutive ErbB2 phosphorylation, NIH 3T3 cells). The format is cell-based. The note with it: ErbB2 YVMA phosphorylation.
ErbB2 with Exon 20 YVMA insertion (HER2-YVMA), sequence (P04626 other isoform, or with tags, fused parts or gaps ins YVMA behind 775): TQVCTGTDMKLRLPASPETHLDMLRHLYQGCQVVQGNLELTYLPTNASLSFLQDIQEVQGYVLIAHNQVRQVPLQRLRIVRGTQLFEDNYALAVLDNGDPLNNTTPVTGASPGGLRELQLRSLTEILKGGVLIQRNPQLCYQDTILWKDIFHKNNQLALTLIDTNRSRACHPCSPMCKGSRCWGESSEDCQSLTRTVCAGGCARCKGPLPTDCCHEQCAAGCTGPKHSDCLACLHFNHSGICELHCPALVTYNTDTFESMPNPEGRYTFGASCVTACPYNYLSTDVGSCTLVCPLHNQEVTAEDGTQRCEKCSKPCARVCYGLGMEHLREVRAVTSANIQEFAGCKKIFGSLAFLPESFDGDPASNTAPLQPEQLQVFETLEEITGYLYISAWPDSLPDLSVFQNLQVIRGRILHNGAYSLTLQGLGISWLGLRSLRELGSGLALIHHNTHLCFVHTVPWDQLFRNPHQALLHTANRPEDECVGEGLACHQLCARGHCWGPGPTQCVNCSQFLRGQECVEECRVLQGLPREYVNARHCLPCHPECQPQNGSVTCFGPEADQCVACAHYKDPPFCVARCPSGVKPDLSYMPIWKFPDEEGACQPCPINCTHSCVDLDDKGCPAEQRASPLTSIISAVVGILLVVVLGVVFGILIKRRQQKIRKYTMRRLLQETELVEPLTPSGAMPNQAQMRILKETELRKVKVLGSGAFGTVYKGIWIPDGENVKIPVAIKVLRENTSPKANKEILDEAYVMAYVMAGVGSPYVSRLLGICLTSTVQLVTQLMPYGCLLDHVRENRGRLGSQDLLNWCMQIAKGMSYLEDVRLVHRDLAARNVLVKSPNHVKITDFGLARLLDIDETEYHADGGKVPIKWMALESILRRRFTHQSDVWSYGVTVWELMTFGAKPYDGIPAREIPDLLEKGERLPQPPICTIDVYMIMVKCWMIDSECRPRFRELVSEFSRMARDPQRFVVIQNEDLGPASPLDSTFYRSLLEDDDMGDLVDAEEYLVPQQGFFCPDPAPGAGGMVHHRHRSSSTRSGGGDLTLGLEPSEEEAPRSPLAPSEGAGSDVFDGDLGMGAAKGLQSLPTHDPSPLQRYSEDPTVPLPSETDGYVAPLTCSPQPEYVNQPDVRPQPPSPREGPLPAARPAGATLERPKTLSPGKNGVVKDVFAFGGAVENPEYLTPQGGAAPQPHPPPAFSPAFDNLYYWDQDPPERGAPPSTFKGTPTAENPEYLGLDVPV
In a further experiment the target is ErbB2 WT (Homo sapiens (Human), UniProt P04626). The experiment is described as follows: ErbB Enzyme Assay (HTRF KinEASE-TK), Assay 2. The following applies: ErbB2 WT enzyme. The experiment is classed as biochemical. For orientation: Time-resolved FRET reads energy transfer from a long-lived donor to a nearby acceptor.
ErbB2 WT, sequence (P04626 23-1255): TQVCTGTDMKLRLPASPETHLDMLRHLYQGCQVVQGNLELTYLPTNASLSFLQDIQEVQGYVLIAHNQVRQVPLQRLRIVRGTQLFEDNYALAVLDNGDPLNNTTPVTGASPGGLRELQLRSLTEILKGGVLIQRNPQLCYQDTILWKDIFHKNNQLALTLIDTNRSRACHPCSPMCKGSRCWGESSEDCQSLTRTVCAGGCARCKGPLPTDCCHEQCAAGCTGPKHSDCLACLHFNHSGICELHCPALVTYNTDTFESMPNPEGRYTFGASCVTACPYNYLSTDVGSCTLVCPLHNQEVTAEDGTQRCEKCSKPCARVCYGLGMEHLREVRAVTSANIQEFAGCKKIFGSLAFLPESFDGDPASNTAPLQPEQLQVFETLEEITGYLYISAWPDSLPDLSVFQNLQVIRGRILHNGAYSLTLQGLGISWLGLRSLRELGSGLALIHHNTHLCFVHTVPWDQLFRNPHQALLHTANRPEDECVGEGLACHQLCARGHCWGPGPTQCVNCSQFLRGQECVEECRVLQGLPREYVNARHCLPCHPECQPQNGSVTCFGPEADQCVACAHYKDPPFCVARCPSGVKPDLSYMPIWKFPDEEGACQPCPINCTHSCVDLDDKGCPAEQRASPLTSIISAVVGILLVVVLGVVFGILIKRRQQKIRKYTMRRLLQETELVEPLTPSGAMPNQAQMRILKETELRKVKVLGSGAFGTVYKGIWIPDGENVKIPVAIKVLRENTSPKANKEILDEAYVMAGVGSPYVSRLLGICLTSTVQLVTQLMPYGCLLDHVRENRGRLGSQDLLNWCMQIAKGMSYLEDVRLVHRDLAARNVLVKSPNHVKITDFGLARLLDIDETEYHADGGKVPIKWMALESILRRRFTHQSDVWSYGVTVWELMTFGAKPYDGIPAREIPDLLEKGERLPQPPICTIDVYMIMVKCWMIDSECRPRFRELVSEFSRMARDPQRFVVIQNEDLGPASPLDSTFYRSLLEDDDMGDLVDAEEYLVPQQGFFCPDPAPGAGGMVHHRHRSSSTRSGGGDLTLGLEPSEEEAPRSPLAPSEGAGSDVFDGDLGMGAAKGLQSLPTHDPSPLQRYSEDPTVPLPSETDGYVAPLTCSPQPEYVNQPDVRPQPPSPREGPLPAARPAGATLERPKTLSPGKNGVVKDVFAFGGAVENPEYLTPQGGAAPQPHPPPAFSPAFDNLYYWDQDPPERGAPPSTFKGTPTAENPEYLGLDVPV
The next experiment has as its target EGFR (Homo sapiens (Human), UniProt P00533). Put plainly: ErbB Enzyme Assay (HTRF KinEASE-TK), Assay 3. The format is biochemical. The note with it: EGFR enzyme.

EGFR, sequence (P00533 25-1210): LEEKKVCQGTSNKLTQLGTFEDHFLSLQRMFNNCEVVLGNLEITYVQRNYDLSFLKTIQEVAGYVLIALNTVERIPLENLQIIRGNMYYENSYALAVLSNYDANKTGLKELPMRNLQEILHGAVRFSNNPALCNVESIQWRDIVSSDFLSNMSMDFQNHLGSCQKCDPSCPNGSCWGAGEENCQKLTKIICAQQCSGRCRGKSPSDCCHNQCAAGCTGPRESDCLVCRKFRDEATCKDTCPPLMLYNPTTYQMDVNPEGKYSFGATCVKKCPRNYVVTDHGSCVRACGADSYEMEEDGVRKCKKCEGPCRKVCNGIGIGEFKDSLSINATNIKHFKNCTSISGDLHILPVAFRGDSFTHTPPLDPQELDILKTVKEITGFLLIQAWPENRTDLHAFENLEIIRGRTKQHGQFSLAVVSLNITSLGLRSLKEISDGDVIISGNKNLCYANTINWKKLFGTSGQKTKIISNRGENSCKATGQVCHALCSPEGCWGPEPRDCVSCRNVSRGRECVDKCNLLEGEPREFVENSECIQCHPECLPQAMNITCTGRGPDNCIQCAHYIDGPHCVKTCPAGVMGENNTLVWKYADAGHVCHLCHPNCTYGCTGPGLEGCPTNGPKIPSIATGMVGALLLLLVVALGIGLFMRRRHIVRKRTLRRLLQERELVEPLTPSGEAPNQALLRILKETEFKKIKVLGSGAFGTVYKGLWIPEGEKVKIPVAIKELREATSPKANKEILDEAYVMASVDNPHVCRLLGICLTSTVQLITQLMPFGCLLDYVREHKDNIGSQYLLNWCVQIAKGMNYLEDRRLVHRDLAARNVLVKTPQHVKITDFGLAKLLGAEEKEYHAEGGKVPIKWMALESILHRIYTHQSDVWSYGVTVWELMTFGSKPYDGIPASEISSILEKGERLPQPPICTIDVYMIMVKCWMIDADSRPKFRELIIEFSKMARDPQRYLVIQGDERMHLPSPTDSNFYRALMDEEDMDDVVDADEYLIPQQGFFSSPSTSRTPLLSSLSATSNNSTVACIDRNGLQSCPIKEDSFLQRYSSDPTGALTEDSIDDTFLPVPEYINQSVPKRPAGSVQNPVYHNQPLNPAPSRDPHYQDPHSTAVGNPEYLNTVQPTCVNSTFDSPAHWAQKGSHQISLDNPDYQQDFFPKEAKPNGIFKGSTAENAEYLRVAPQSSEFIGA
EGFR wild type (EGFR WT), sequence (P00533 25-1210): as above

Take `C=CC(=O)N1C[C@H]2CC[C@@H]1C[C@@H]2c1ccc2ncnc(Nc3ccc(Oc4ccn5ncnc5c4)c(C)c3F)c2n1` (single isomer, unassigned) [Example 234]: the half-inhibitory concentration (IC50) at EGFR wild type (EGFR WT) is 875 nM; in experiment [1], 33 nM; against ErbB2 WT, 37.3 nM; against EGFR, 960 nM.

`C=CC(=O)N1C[C@@H]2CC[C@H]1C[C@H]2c1ccc2ncnc(Nc3ccc(Oc4ccn5ncnc5c4)c(C)c3F)c2n1` (single isomer, unassigned) [Example 235]: the IC50 against EGFR wild type (EGFR WT) is not below 5000 nM; in experiment [1] it was 92.1 nM; on ErbB2 WT, 31 nM; against EGFR, 1020 nM.

For `C=CC(=O)N1CCC(Oc2ccc3ncnc(Nc4cc(Cl)c(Oc5ccc6cn(C)nc6c5)cc4Cl)c3n2)CC1` [Example 2, 1-(4-((4-((2,5-dichloro-4-((2-methyl-2H-indazol-6-yl)oxy)phenyl)amino)pyrido[3,2-d]pyrimidin-6-yl)oxy)piperidin-1-yl)prop-2-en-1-one], the IC50 is not below 5000 nM at EGFR wild type (EGFR WT), 1140 nM in experiment [1], 1290 nM on ErbB2 WT and not below 10000 nM on EGFR.

For the molecule `C=CC(=O)N1CCC(Oc2ccc3ncnc(Nc4cc(Cl)c(Oc5ccc6cn(C)nc6c5)cc4F)c3n2)CC1` [Example 4, 1-(4-((4-((5-chloro-2-fluoro-4-((2-methyl-2H-indazol-6-yl)oxy)phenyl)amino)pyrido[3,2-d]pyrimidin-6-yl)oxy)piperidin-1-yl)prop-2-en-1-one], the concentration for half-maximal inhibition (IC50) at EGFR wild type (EGFR WT) was not below 5000 nM; in experiment [1], 392 nM; on ErbB2 WT, 876 nM; at EGFR it was not below 10000 nM.

For the molecule `C=CC(=O)N1CCC(Oc2ccc3ncnc(Nc4cc(C)c(Oc5ccc6cn(C)nc6c5)cc4F)c3n2)CC1` [Example 5, 1-(4-((4-((2-fluoro-5-methyl-4-((2-methyl-2H-indazol-6-yl)oxy)phenyl)amino)pyrido[3,2-d]pyrimidin-6-yl)oxy)piperidin-1-yl)prop-2-en-1-one], the IC50 was not below 5000 nM against EGFR wild type (EGFR WT), 407 nM in experiment [1], 2340 nM on ErbB2 WT and not below 10000 nM against EGFR.

`C=CC(=O)N1CCC(Oc2ccc3ncnc(Nc4ccc(Oc5cnn6ccnc6c5)c(C)c4)c3n2)CC1` [Example 8, 1-(4-((4-((4-(imidazo[1,2-b]pyridazin-7-yloxy)-3-methylphenyl)amino)pyrido[3,2-d]pyrimidin-6-yl)oxy)piperidin-1-yl)prop-2-en-1-one]: the IC50 against EGFR wild type (EGFR WT) turned out to be 799 nM; in experiment [1], 47.3 nM; against ErbB2 WT, 76.5 nM; on EGFR, 1350 nM.

On to `C=CC(=O)N1CCC(Oc2ccc3ncnc(Nc4ccc(Oc5ccc6cn(C)nc6c5)c(F)c4)c3n2)CC1` [Example 12, 1-(4-((4-((3-fluoro-4-((2-methyl-2H-indazol-6-yl)oxy)phenyl)amino)pyrido[3,2-d]pyrimidin-6-yl)oxy)piperidin-1-yl)prop-2-en-1-one], for which the IC50 against EGFR wild type (EGFR WT) was not below 5000 nM; in experiment [1], 193 nM; against ErbB2 WT it was 1030 nM; on EGFR it was not below 10000 nM.

For `C=CC(=O)N1CCC(Oc2ccc3ncnc(Nc4ccc(Oc5cnc6cn(C)nc6c5)c(C)c4)c3n2)CC1` [Example 14, 1-(4-((4-((3-methyl-4-((2-methyl-2H-pyrazolo[4,3-b]pyridin-6-yl)oxy)phenyl)amino)pyrido[3,2-d]pyrimidin-6-yl)oxy)piperidin-1-yl)prop-2-en-1-one], the IC50 against EGFR wild type (EGFR WT) is not below 5000 nM; in experiment [1], 48.4 nM; on ErbB2 WT, 432 nM; on EGFR, not below 10000 nM.

`C=C(C)c1ccc2ncnc(Nc3ccc(Oc4ccc5c(c4)ncn5C)c(C)c3)c2n1` [Example 24, N-(3-methyl-4-((1-methyl-1H-benzo[d]imidazol-5-yl)oxy)phenyl)-6-(prop-1-en-2-yl)pyrido[3,2-d]pyrimidin-4-amine]: the IC50 was not below 5000 nM on EGFR wild type (EGFR WT), 70.6 nM in experiment [1], 194 nM at ErbB2 WT and not below 10000 nM on EGFR.

In the case of `Cc1c(Oc2ccn3ncnc3c2)ccc(Nc2ncnc3ccc(N4C[C@@H]5CCN(C(=O)C67CC6C7)[C@@H]5C4)nc23)c1F` (stereo partly drawn) [Example 27, ((3aS,6aS)-5-(4-((4-([1,2,4]triazolo[1,5-a]pyridin-7-yloxy)-2-fluoro-3-methylphenyl)amino)pyrido[3,2-d]pyrimidin-6-yl)hexahydropyrrolo[3,4-b]pyrrol-1(2H)-yl)(bicyclo[1.1.0]butan-1-yl)methanone], the IC50 on EGFR wild type (EGFR WT) was not below 5000 nM; in experiment [1], 381 nM; at ErbB2 WT, 486 nM; against EGFR it was not below 10000 nM.

For the molecule `C=CC(=O)N1CC[C@@H]2C[C@H]1CN2c1ccc2ncnc(Nc3ccc(Oc4ccc5c(c4)ncn5C)c(C)c3F)c2n1` [Example 29, 1-((1 S,5R)-6-(4-((2-fluoro-3-methyl-4-((1-methyl-1H-benzo[d]imidazol-5-yl)oxy)phenyl)amino)pyrido[3,2-d]pyrimidin-6-yl)-2,6-diazabicyclo[3.2.1]octan-2-yl)prop-2-en-1-one], the IC50 against EGFR wild type (EGFR WT) amounted to 118 nM; in experiment [1], 5.8 nM; at ErbB2 WT, 36.5 nM; on EGFR, 311 nM.

In the case of `C=CC(=O)N1CCC2CN(c3nc4c(Nc5ccc(Oc6ccn7ncnc7c6)c(Cl)c5F)ncnc4cc3OC)CC21` (centres unmarked) [Example 38, 1-(5-(4-((4-([1,2,4]triazolo[1,5-a]pyridin-7-yloxy)-3-chloro-2-fluorophenyl)amino)-7-methoxypyrido[3,2-d]pyrimidin-6-yl)hexahydropyrrolo[3,4-b]pyrrol-1(2H)-yl)prop-2-en-1-one], the IC50 against EGFR wild type (EGFR WT) came to 382 nM; in experiment [1], 22.6 nM; against ErbB2 WT it was 8.5 nM; against EGFR, 153 nM.

As to `C=CC(=O)N1CCC(Oc2nc3c(Nc4ccc(Oc5ccn6ncnc6c5)c(C)c4F)ncnc3cc2OC)CC1` [Example 40, 1-(4-((4-((4-([1,2,4]triazolo[1,5-a]pyridin-7-yloxy)-2-fluoro-3-methylphenyl)amino)-7-methoxypyrido[3,2-d]pyrimidin-6-yl)oxy)piperidin-1-yl)prop-2-en-1-one], the IC50 against EGFR wild type (EGFR WT) came out at 111 nM; in experiment [1] it was 7.8 nM; at ErbB2 WT, 11.3 nM; on EGFR, 300 nM.

As for `C=CC(=O)N1C2CC1CN(c1ccc3ncnc(Nc4cc(Cl)c(Oc5ccn6ncnc6c5)cc4F)c3n1)C2` [Example 44, 1-(3-(4-((4-([1,2,4]triazolo[1,5-a]pyridin-7-yloxy)-5-chloro-2-fluorophenyl)amino)pyrido[3,2-d]pyrimidin-6-yl)-3,6-diazabicyclo[3.1.1]heptan-6-yl)prop-2-en-1-one], the IC50 is not below 5000 nM at EGFR wild type (EGFR WT), 55.7 nM in experiment [1], 81.5 nM on ErbB2 WT and not below 10000 nM on EGFR.

`C=CC(=O)N1CCC(Oc2ccc3ncnc(Nc4ccc(Oc5cnn6c(C)cnc6c5)c(Cl)c4F)c3n2)CC1` [Example 53, 1-(4-((4-((3-chloro-2-fluoro-4-((3-methylimidazo[1,2-b]pyridazin-7-yl)oxy)phenyl)amino)pyrido[3,2-d]pyrimidin-6-yl)oxy)piperidin-1-yl)prop-2-en-1-one]: the IC50 came to 1240 nM against EGFR wild type (EGFR WT), 41.1 nM in experiment [1], 99.1 nM at ErbB2 WT and 1450 nM at EGFR.

Consider `C=CC(=O)N1CCC(Oc2ccc3ncnc(Nc4ccc(Oc5cnn6ccnc6c5)c(Cl)c4)c3n2)CC1` [Example 54, 1-(4-((4-((3-chloro-4-(imidazo[1,2-b]pyridazin-7-yloxy)phenyl)amino)pyrido[3,2-d]pyrimidin-6-yl)oxy)piperidin-1-yl)prop-2-en-1-one], for which the half-inhibitory concentration (IC50) is 1470 nM at EGFR wild type (EGFR WT), 40 nM in experiment [1], 423 nM at ErbB2 WT and 1380 nM at EGFR.

For `C=CC(=O)N1CCC(Oc2ccc3ncnc(Nc4ccc(Oc5cnn6c(C)cnc6c5)c(C)c4F)c3n2)CC1` [Example 55, 1-(4-((4-((2-fluoro-3-methyl-4-((3-methylimidazo[1,2-b]pyridazin-7-yl)oxy)phenyl)amino)pyrido[3,2-d]pyrimidin-6-yl)oxy)piperidin-1-yl)prop-2-en-1-one], the concentration for half-maximal inhibition (IC50) is 930 nM at EGFR wild type (EGFR WT), 50.8 nM in experiment [1], 2040 nM against ErbB2 WT and not below 10000 nM at EGFR.

With `C=CC(=O)N1CCC(Oc2ccc3ncnc(Nc4ccc(Oc5cnn6ccnc6c5)c(C)c4F)c3n2)CC1` [Example 56, 1-(4-((4-((2-fluoro-4-(imidazo[1,2-b]pyridazin-7-yloxy)-3-methylphenyl)amino)pyrido[3,2-d]pyrimidin-6-yl)oxy)piperidin-1-yl)prop-2-en-1-one], the IC50 against EGFR wild type (EGFR WT) came out at 374 nM; in experiment [1], 19.7 nM; at ErbB2 WT, 233 nM; against EGFR, 1440 nM.

In the case of `C=CC(=O)N1CCC(Sc2ccc3ncnc(Nc4ccc(Oc5ccn6ncnc6c5)c(C)c4F)c3n2)CC1` [Example 60, 1-(4-((4-((4-([1,2,4]triazolo[1,5-a]pyridin-7-yloxy)-2-fluoro-3-methylphenyl)amino)pyrido[3,2-d]pyrimidin-6-yl)thio)piperidin-1-yl)prop-2-en-1-one], the IC50 against EGFR wild type (EGFR WT) was 1210 nM; in experiment [1], 49.4 nM; against ErbB2 WT it was 54.3 nM; at EGFR, not below 10000 nM.

On to `C=CC(=O)N1CC(Sc2ccc3ncnc(Nc4ccc(Oc5ccc6c(c5)ncn6C)c(C)c4F)c3n2)C1` [Example 61, 1-(3-((4-((2-fluoro-3-methyl-4-((1-methyl-1H-benzo[d]imidazol-5-yl)oxy)phenyl)amino)pyrido[3,2-d]pyrimidin-6-yl)thio)azetidin-1-yl)prop-2-en-1-one], for which the IC50 against EGFR wild type (EGFR WT) amounted to 976 nM; in experiment [1] it was 34.4 nM; against ErbB2 WT it was 16.3 nM; on EGFR, 283 nM.

For orientation: IC50 means the concentration that inhibits the measured activity by half. Read a high IC50 as weaker potency.
